Assay [1] concerns Gi proteins (inhibition of adenylyl cyclase activity in osteoblasts). As to the kind of experiment: cAMP accumulation assay in osteoblasts, Gpp(NH)p as agonist. Type of assay: cell-based, human. Particulars: forskolin-stimulated. The procedure: The functionality of Gi proteins was assessed by investigating their ability to inhibit adenylyl cyclase activity in osteoblasts. To obtain inhibition curve of cAMP production the non-hydrolysable analogue of GTP, Gpp(NH)p (guanilyl 5′-imidophosphate, Sigma™) was added to the forskolin-containing samples in concentrations ranging from 10 nM to 100 μM. The cAMP content was determined as described above in similar assays with melatonin.
The values reported in FIG. 8 were detected after the administration of 10^−9M Gpp(NH)p, a GTP non-hydrolysable analogue.

Assay [2] deals with forskolin-stimulated adenylyl cyclase activity in osteoblasts. Put plainly: cAMP accumulation assay in osteoblasts, melatonin as agonist. Type of assay: cell-based, human. On the procedure:
Osteoblasts from patients with AIS and control subjects were seeded in quadruplet on 24-wells plate (1×10^5 cells/well) and incubated either with the vehicle alone, dimethyl sulphoxide (DMSO, Sigma™, Oakville, ON, Canada) or the diterpene forskolin (10^−5M, Sigma™) to stimulate the cAMP formation. Inhibition curves of cAMP production were generated by adding melatonin to the forskolin-containing samples in concentrations ranging from 10^−11M to 10^−5M in a final volume of 1 ml of DMEM media with 0.5% bovine serum albumin (BSA, Sigma™). After a 30-minute incubation at 37° C., the cells were lysed and the sample centrifuged at 4° C. The cAMP content was determined in 200 μl aliquot of the supernatant using an enzyme immunoassay kit (Amersham-Pharmacia Biosciences, Mississauga, ON, Canada). All assays were performed in duplicate.
A method of screening of the present invention was performed and identified estrogen as one compound able to modulate the melatonin-signaling pathway impairment in AIS patients. Experiments were performed showing the effect of increasing concentrations of melatonin (10^−11 to 10^−5M) used as known agonist of melatonin-signaling pathway on forskolin-stimulated adenylyl cyclase activity in osteoblasts from two patients with AIS (group 3 see Table 2) treated or not with a physiological dose of estradiol (10^−10M). Results illustrated in panels A and B of FIG. 19 correspond to AIS patient numbered 13 and 29 in Table 1, respectively.

The test system of assay [3] is Gi proteins coupled to MT1 and MT2 receptors. Put plainly: Co-immunoprecipitation of Gi proteins coupled to melatonin receptors and their phosphorylation state. Type of assay: cell-based, human. Particulars: for phosphorylated forms of Gi3 and Gi2 in MT1 or MT2 immune complexes: overnight treatment of the cells. The procedure:
Co-immunoprecipitation assays were performed with anti-MT1 and anti-MT2 specific antibodies (kind gifts of Dr Debora Angeloni and Prof Franco Fraschini, University of Milan, Italy) to identify Gi proteins coupled to individual melatonin receptor in human MG-63 osteoblasts (FIG. 9).
The specific antibodies were incubated with membrane fractions purified from osteoblasts untreated and treated with melatonin (10^−9M), genistein or herbimycin (1 μM, tyrosine kinase inhibitors, Sigma™) or sodium orthovanadate, Na3VO4, (1 mM, tyrosine phosphatase inhibitor, Sigma™) for at least 16 h. Presence of coupled Gi proteins in respective immune-complexes were determined by SDS-PAGE and Western blot with specific Gi antibodies (Santa Cruz Biotechnology Inc., Santa Cruz, Calif., USA) and phosphorylation status of these coupled Gi proteins were determined using anti-phosphoserine, phosphothreonine and phosphotyrosine antibodies (Sigma™) using the same membrane after stripping. Purified recombinant Gi proteins were used as control for antibody specificity.

The next assay deals with human osteoclasts. Put plainly: Osteoclast pit resorption assay on bone matrix. Format: cell-based. The procedure:
The inhibitory effect of melatonin on osteoclasts activity was performed using normal human osteoclasts derived from peripheral blood. Mel, melatonin; luz, luzindole, a specific MT2 antagonist;
Other functional assays with melatonin using osteoclasts derived from monocytes/lymphocytes fraction isolated from peripheral blood of AIS patients and control subjects are performed. Primary osteoclasts are derived from the peripheral blood of patients and non-scoliotic subjects using 10 ml of blood or less. Anticoagulant-treated blood is layered on the Ficoll-Paque™ solution and centrifuged for a short period of time. Differential migration during centrifugation results in the formation of layers containing different blood cells. Because of their lower density, the lymphocytes are found at the interface between the plasma and the Ficoll-Paque™ with other slowly sedimenting particles (platelet and monocytes). The lymphocytes are then recovered from the interface and subjected to a short washing step with a balanced salt solution to remove any platelets, Ficoll-Paque™ and plasma. The cells are then counted and seeded at high density (1×10^6 cells per cm^2) onto artificial bone or dentin matrix in α-MEM with 10% FBS and antibiotics. After a few days, cells that remain adherent will start to differentiate into osteoclasts, forming large multinucleate cells after 15-20 days.

Assay [4] has as its system osteocalcin (OC), osteopontin (OPN) and bone sialoprotein (BSP). As to the kind of experiment: Expression analysis of osteoblast terminal differentiation markers. Format: cell-based. As to conditions: osteoblasts in vitro.
The test system of assay [5] is MT1 receptor expression in MC3T3-E1 cells. Put plainly: RT-PCR expression analysis of melatonin receptors. Format: cell-based. As to conditions: melatonin 10^-7M.
Protocol: RT-PCR were performed with specific primers corresponding to melatonin receptor subtypes, MT1 (panel A, FIG. 7), MT2 (panel B, FIG. 7) and OPN (panel C, FIG. 7) using 2 μg of RNA isolated every 2 h during a 24 h cycle from MC3T3-E1 cells treated (+) or not (−) with melatonin (10^−7M). […] PCR products were separated on a 1.5% agarose gel and visualized by ethidium bromide staining.
The nature of assay [6]: Bone mineral density (DEXA) in pinealectomized chicken. Type of assay: in vivo. Particulars: melatonin 3 mg/kg/day ip. The procedure: Treatment with melatonin, 3 mg/kg/day ip, increased BMD in treated animals. […]
For assay [7], the system named is scoliosis formation after pinealectomy. As to conditions: treatment after pinealectomy in both animal models (chicken, bipedal rats); cited from earlier work.
In a further assay the test system is human osteoblasts. Put plainly: Osteoblast proliferation assay ([3H]-thymidine incorporation). Type of assay: cell-based. As to conditions: melatonin 10^-9M. On the procedure:
An assay was performed to compare the proliferation of osteoblasts of normal subjects with that of scoliotic patients. […]

Assay [8] deals with forskolin-stimulated adenylyl cyclase activity in myoblasts. As to the kind of experiment: cAMP accumulation assay in skeletal myoblasts, melatonin as agonist. Format: cell-based, human. As to conditions: myoblasts from AIS patients. The procedure: The functionality of melatonin signaling is assessed by investigating the ability of Gi proteins to inhibit stimulated adenylyl cyclase activity in intact skeletal myoblasts. Cells prepared from patients with AIS and control subjects are seeded in quadruplet on 24-wells plate (1×10^5 cells/well) and incubated either with dimethyl sulphoxide (DMSO, Sigma™) or forskolin (10^−5M, Sigma™) to stimulate the cAMP formation. To obtain the inhibition curve of cAMP production, melatonin is added to the forskolin-containing samples in concentrations ranging from 10^−11M to 10^−5M in a final volume of 1 ml of DMEM media with 0.5% bovine serum albumin (BSA). After a 30-minute incubation at 37° C., the cells are lysed and the sample centrifuged at 4° C. The cAMP content is determined in 200 μl aliquot of the supernatant using an enzyme immunoassay kit (Amersham-Pharmacia Biosciences).
A general note: cAMP levels reflect the balance of adenylyl cyclase and phosphodiesterase activity.

Entries after “also recorded” stand apart in the source; their conditions may differ.

`Nc1nc2c(ncn2[C@@H]2O[C@H](COP(=O)(O)OP(=O)(O)NP(=O)(O)O)[C@@H](O)[C@H]2O)c(=O)[nH]1` [Gpp(NH)p, guanilyl 5′-imidophosphate]: in [1] (osteoblasts from a majority of AIS patients), the “inhibitory effect on cAMP levels” value was “no inhibitory effect”. Further, the “effect on cAMP levels” value in assay [1] (osteoblasts from control subjects) is reported as “reduced cAMP levels”.
Regarding `C[C@]12CC[C@@H]3c4ccc(O)cc4CC[C@H]3[C@@H]1CC[C@@H]2O` [estradiol], in assay [2] (osteoblasts from two AIS patients (group 3), estradiol 10^-10M, melatonin 10^-11 to 10^-5M), the “effect on the inhibitory effect of melatonin on forskolin-stimulated adenylyl cyclase activity” value was “further block the inhibitory effect of melatonin”.
`O=c1c(-c2ccc(O)cc2)coc2cc(O)cc(O)c12` [genistein]: the “phosphorylated forms of Gi3 and Gi2 in MT1 or MT2 immune complexes” value in assay [3] is given as “completely abolished the presence of both phosphorylated forms”.
Regarding `CC(=O)NCCc1c(Cc2ccccc2)[nH]c2ccccc12` [luzindole], in the assay with human osteoclasts (normal human osteoclasts, luzindole added with melatonin), the “effect on the inhibition of osteoclasts resorption activity by melatonin” value is reported as “prevents or reduces the inhibitory effect of melatonin”.
On to `COc1ccc2[nH]cc(CCNC(C)=O)c2c1` [melatonin], for which the osteoclasts resorption activity entry in the assay with human osteoclasts (normal human osteoclasts derived from peripheral blood, melatonin 10^-9M to 10^-7M) was “inhibits osteoclasts resorption activity”. In the assay on human osteoclasts (osteoclasts isolated from animals with AIS or related syndrome, reasonably predicted), the “resorbing activity of osteoclasts” value is on record as “does not affect resorbing activity”. The “expression of osteoblast terminal differentiation markers OC, OPN and BSP” value in assay [4] was “up-regulates”. Also, in assay [5], the “MT1 receptor subtype expression (RT-PCR)” value is “down regulated”. Further, the “effect on cAMP accumulation” value in assay [2] (AIS group 1 osteoblasts) is on record as “increased cAMP accumulation”. The “inhibition of cAMP accumulation” value is on record as “no significant inhibition; also recorded: did not respond” in assay [2] (AIS group 2 osteoblasts, even at 10^-7M or 10^-5M melatonin) and “no significant inhibition” in assay [2] (AIS group 3 osteoblasts, physiological dose 10^-9M). In addition, the “response toward melatonin treatment (cAMP)” value in assay [2] (AIS group 3 osteoblasts) is “weak response”. Also, the “inhibitory effects on adenylyl cyclase activity” value in [2] (AIS group 3 osteoblasts, higher doses of melatonin) is “some significant inhibitory effects”. For the same compound, in assay [2] (osteoblasts from control subjects, forskolin 10^-5M, melatonin 10^-11M to 10^-5M, dose-dependent), the “reduction of cAMP levels (inhibition of forskolin-stimulated adenylyl cyclase activity)” value is on record as 60-70%. Moreover, the “inhibition of forskolin-stimulated adenylyl cyclase activity” value in assay [2] (osteoblasts from patients with AIS) is reported as “lack of inhibition”. In addition, the “bone mineral density (BMD)” value in [6] is “increased BMD”. Also, in assay [7], the “formation of scoliosis after pinealectomy” value is “prevented the formation of scoliosis”. Further, the “osteoblast growth rate ([3H]-thymidine incorporation)” value in the assay with human osteoblasts (normal osteoblasts) is listed as “increases linearly”; with human osteoblasts (osteoblasts from scoliotic patients) it was “did not respond”. Also, the “inhibition of cAMP accumulation induced by forskolin” value in [8] (melatonin 10^-11 to 10^-5M, preliminary tests) is reported as “incapacity of melatonin to inhibit cAMP accumulation”; in assay [8] (supra pharmacological dose 10^-5M), “able in 2 cases to inhibit cAMP accumulation”. Also, the “binding of Gi3 and Gi2 proteins to MT2 receptors” value in assay [3] (osteoblast purified membranes, in presence of melatonin) was “increased”. Moreover, the “phosphorylated forms of Gi3 and Gi2 in MT1 or MT2 immune complexes” value in assay [3] is recorded as “completely abolished the presence of both phosphorylated forms”.
